Common to all, as to format: binding
Assay [1] concerns the target T1, hNedd4L-WW3* (Homo sapiens, UniProt Q96PU5).
T1 construct: The DNA fragment of the third WW domain of both proteins was amplified; GST (N, cleaved yes); made in house; host or cells: E. coli BL21(DE3)
As to the kind of experiment: Isothermal titration calorimetry, hNedd4L-WW3*. Particulars: ITC, 25 °C, 10 mM sodium phosphate. As to the method: (§1) In order to compare the affinities between the U24 proteins and WW domains, the equilibrium dissociation constant (KD) for the interaction between each U24:Nedd4-WW domain pair tested above was determined using ITC. […] ITC experiments using these peptides as titrants were carried out on Nedd4-WW domains in 10 mM sodium phosphate, pH 7.4, at 25 °C. Control experiments in which the phosphate buffer was titrated into the protein solutions were also conducted to ensure the proteins were stable during the titration with peptide.
In order to find out whether electrostatic interactions play a role in the binding of the three U24 peptides tested here to the Nedd4-WW domains, a set of ITC experiments were performed as a function of increasing salt concentration, 0 mM, 100 mM and 500 mM, in 10 mM sodium phosphate, pH 7.4, at 25 °C, for rNedd4-WW3/4 and hNedd4L-WW3*.
(§2) Two cDNA clones containing human E3 ubiquitin-protein ligase Nedd4 (KIAA0093) and Nedd4-like protein (KIAA0439) were ordered from Kazusa DNA research institute (Chiba, Japan). The DNA fragment of the third WW domain of both proteins was amplified and inserted into BamHI and XhoI sites of pGEX-4T2 vector (GE Healthcare). The plasmids containing GST fusion proteins of the second and third WW domains (WW2 and WW3/4) of rNedd4 were kind gifts from Dr. Julie D. Forman-Kay (Hospital for Sick Children, Toronto). All plasmids were transformed into E. coli BL21(DE3) for expression at 25 °C for 16 hours using a final concentration of 400 μM IPTG. ^15N labelled protein was expressed in M9 media supplemented with ^15N labelled NH4Cl. The cells were harvested by centrifugation and stored in the −80 °C freezer until further use. The cell paste from approximately 600 mL culture was thawed on ice and resuspended in 10 mL PBS supplemented with 1% Triton X-100 (PBS/Triton buffer). Lysozyme, protease inhibitor and DNAse were added in the mixture. The mixture was incubated on ice for half an hour, then was lysed in an ice bath by sonication. After being centrifuged at 9,000 rpm for 1 hour, the supernatant was filtered using a 0.45 μm filter, and then applied to 2 mL of PBS washed Glutathione Sepharose 4B resin (GE Healthcare, GST 4B resin). The resin slurry with cell lysate was incubated for 2 hours at room temperature, and then washed with PBS/Triton buffer six times. The resin was collected by centrifugation at 600 × g for 5 minutes.
In order to obtain WW domains without the GST tag, the proteins were extracted and immobilized on GST 4B resin as described above. The resin was washed three times with PBS buffer, after the washing with PBS/Triton buffer. […]
After overnight dialysis, the cleaved Nedd4 WW domains in phosphate buffer, with different salt concentrations, were ready for use in ITC experiments. […]

In assay [2] the target is T2, rNedd4-WW2 (Rattus norvegicus, UniProt Q62940).
T2 construct: GST fusion proteins of the second and third WW domains (WW2 and WW3/4) of rNedd4; GST (N, cleaved yes); made in house; host or cells: E. coli BL21(DE3)
T2 sequence (Q62940 402-435 limits assumed): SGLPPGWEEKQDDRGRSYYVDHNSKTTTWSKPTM
As to the kind of experiment: Isothermal titration calorimetry, rNedd4-WW2. Particulars: ITC, 25 °C, 10 mM sodium phosphate, pH 7.4; mean of three separate runs ± one SD. The protocol: as §1
(§3) Two cDNA clones containing human E3 ubiquitin-protein ligase Nedd4 (KIAA0093) and Nedd4-like protein (KIAA0439) were ordered from Kazusa DNA research institute (Chiba, Japan). The DNA fragment of the third WW domain of both proteins was amplified and inserted into BamHI and XhoI sites of pGEX-4T2 vector (GE Healthcare). […]
(§4) After overnight dialysis, the cleaved Nedd4 WW domains in phosphate buffer, with different salt concentrations, were ready for use in ITC experiments. […] The concentration of the sample was determined by the absorbance at 280 nm in 6 M Guanidine HCl on a UV-Vis spectrophotometer, and calculated using the theoretical extinction coefficient obtained from the ProtParam tool[51]. […] The peptide amounts were determined gravimetrically and calibrated according to the absorbance at 280 nm in 6 M Guanidine HCl. […]
(In general: Isothermal titration calorimetry measures the heat released or taken up as one component is titrated into another.)

Assay [3] concerns the target T3, rNedd4-WW3/4 (Rattus norvegicus, UniProt Q62940).
T3 construct: GST fusion proteins of the second and third WW domains (WW2 and WW3/4) of rNedd4; GST (N, cleaved yes); made in house; host or cells: E. coli BL21(DE3)
As to the kind of experiment: Isothermal titration calorimetry, rNedd4-WW3/4. Particulars: ITC, 25 °C, 10 mM sodium phosphate. As to the method: as §1
Importantly, this is the tightest affinity characterized to date between a U24 peptide ligand and WW domains.
In order to find out whether electrostatic interactions play a role in the binding of the three U24 peptides tested here to the Nedd4-WW domains, a set of ITC experiments were performed as a function of increasing salt concentration, 0 mM, 100 mM and 500 mM, in 10 mM sodium phosphate, pH 7.4, at 25 °C, for rNedd4-WW3/4 and hNedd4L-WW3*. Affinities and molar binding enthalpies (ΔH) for each U24:WW-domain pair as a function of salt concentration are plotted in Supplementary Fig. 2 and Fig. 3c and d, respectively.
as §2
In order to obtain WW domains without the GST tag, the proteins were extracted and immobilized on GST 4B resin as described above. The resin was washed three times with PBS buffer, after the washing with PBS/Triton buffer. 3 mL PBS buffer and 150 units of thrombin (GE Healthcare) were added into the pelleted resin and the slurry was incubated at room temperature for 16 hours. The supernatant containing cleaved WW domains were collected on the second day by centrifugation. The residual thrombin in this fraction was removed using p-Aminobenzamidine-agarose (Sigma-Aldrich) and fresh GST 4B resin was used to remove the GST contaminants. The WW domain containing fraction was dialyzed at 4 °C against 2 L phosphate buffer (10 mM sodium phosphate, pH 7.4) using 2,000 MWCO dialysis membrane overnight for ITC or NMR experiments, or phosphate buffer with various salt concentrations (phosphate buffer with 100 mM or 500 mM NaCl) for ITC experiments.
After overnight dialysis, the cleaved Nedd4 WW domains in phosphate buffer, with different salt concentrations, were ready for use in ITC experiments. The dialysis buffer was kept as a sample-free buffer to measure the heats of dilution. […]

Assay [4] has as its target T4, hNedd4-WW3* (Homo sapiens, UniProt P46934).
T4 construct: The DNA fragment of the third WW domain of both proteins was amplified; GST (N, cleaved yes); made in house; host or cells: E. coli BL21(DE3)
Nature of the assay: Isothermal titration calorimetry, hNedd4-WW3*. Particulars: ITC, 25 °C, 10 mM sodium phosphate, pH 7.4; mean of three separate runs ± one SD. As to the method: as §1, §3, §4

[5] abbreviates: pH 7.4, extra 100 mM NaCl, three runs.
Where [6] appears, read: pH 7.4, extra 500 mM NaCl, three runs.
Setting [7] is: pH 7.4, mean of three separate runs ± one SD.

No end group written: not given here.

T1 sequence (Q96PU5 497-530 limits assumed): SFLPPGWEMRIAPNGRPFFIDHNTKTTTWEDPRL
T3 sequence (Q62940 459-492 limits assumed): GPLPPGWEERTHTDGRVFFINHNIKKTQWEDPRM
T4 sequence (P46934 840-873 limits assumed): as the sequence (Q96PU5 497-530 limits assumed) above, with S1G, P5K, M9V, I11H counted along it

As usually defined, the Kd is the free concentration of one partner at which half of the binding sites on the other are occupied at equilibrium, for simple one-to-one binding. Lower therefore signals a tighter complex. `CSCC[C@H](N)C(=O)N[C@@H](CC(=O)O)C(=O)N1CCC[C@H]1C(=O)N1CCC[C@H]1C(=O)N[C@@H](CCCNC(=N)N)C(=O)N[C@H](C(=O)N1CCC[C@H]1C(=O)N1CCC[C@H]1C(=O)N1CCC[C@H]1C(=O)N[C@@H](CO)C(=O)N[C@@H](Cc1ccc(O)cc1)C(=O)N[C@@H](CO)C(=O)N[C@@H](CCC(=O)O)C(=O)N[C@H](C(=O)N[C@@H](CC(C)C)C(=O)O)C(C)C)[C@@H](C)O` [U24-6A]: the Kd stood at 6.9 µM in assay [1] (setting [5]); 6.1 µM in assay [1] (setting [6]); 6.3 ± 0.3 µM in assay [1] (setting [7]); 155 ± 12 µM in assay [2]; 35.7 µM in assay [3] (setting [5]); 30.6 µM in assay [3] (setting [6]). The compound further returned a Kd in assay [4] of 9.7 ± 0.2 µM.

On to MTHETPPPSYNDVML [U24-7], for which the Kd in assay [2] was determined as 87 ± 5 µM; in assay [3] (setting [5]), 14.6 µM; in assay [3] (setting [6]), 13.2 µM; in assay [3] (setting [7]) it was 21 ± 0.5 µM; in assay [4], 1.98 ± 0.04 µM.

“IKHEPENPPPYEEAM [Nogo-A, reference compound]”: in assay [1] (setting [7]), the Kd was 4 ± 0.2 µM.

`CSCC[C@H](N)C(=O)N[C@@H](CC(=O)O)C(=O)N1CCC[C@H]1C(=O)N1CCC[C@H]1C(=O)N[C@@H](CCCNC(=N)N)C(=O)N[C@H](C(=O)N1CCC[C@H]1C(=O)N1CCC[C@H]1C(=O)N1CCC[C@H]1C(=O)N[C@@H](CO)C(=O)N[C@@H](Cc1ccc(O)cc1)C(=O)N[C@@H](CO)C(=O)N[C@@H](CCC(=O)O)C(=O)N[C@H](C(=O)N[C@@H](CC(C)C)C(=O)O)C(C)C)[C@@H](C)OP(=O)(O)O` [pU24-6A]: the Kd came to 12 µM in assay [3] (setting [5]) and 9.5 µM in assay [3] (setting [6]).
